These results are taken from paper PMC10439028, “SGLT5 is the renal transporter for 1,5-anhydroglucitol, a major player in two rare forms of neutropenia” (Cellular and Molecular Life Sciences: CMLS, 2023).

The target in the assay is T1, SGLT5-TM (S70N–E71I–L75H) (Homo sapiens, UniProt A0PJK1, E71I/L75H/S70N).
T1 construct: pUB83-hSGLT5-iso2 as well as the various SGLT5 mutants obtained were used to transduce HEK293T cells; expressed in transfected cells; host or cells: HEK293T, lentiviral transduction (pUB83)
T1 sequence (A0PJK1 whole entry S70N/E71I/L75H): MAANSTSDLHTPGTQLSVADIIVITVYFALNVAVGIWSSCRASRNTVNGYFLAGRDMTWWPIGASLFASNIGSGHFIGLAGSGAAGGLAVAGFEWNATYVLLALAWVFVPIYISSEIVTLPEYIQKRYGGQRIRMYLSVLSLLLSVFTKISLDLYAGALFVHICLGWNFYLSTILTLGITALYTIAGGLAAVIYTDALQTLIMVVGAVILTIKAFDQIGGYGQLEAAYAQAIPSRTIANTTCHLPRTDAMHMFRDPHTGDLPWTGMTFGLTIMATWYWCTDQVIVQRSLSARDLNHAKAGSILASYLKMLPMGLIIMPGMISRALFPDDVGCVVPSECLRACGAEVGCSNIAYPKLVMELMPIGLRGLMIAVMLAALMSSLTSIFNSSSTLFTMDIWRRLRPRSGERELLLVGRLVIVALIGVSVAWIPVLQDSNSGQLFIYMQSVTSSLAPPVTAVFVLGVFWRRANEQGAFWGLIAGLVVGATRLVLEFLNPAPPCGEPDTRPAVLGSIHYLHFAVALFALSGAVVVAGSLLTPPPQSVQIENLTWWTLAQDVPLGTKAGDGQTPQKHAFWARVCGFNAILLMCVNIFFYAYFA
The assay can be described thus: Inhibition of 10 µM 1,5-AG transport by triple mutant SGLT5-TM (S70N-E71I-L75H). Type of assay: cell-based. The method, then: The transport experiments to study the specificity of SGLT4 or SGLT5, were performed in the presence of 10 µM U-[^14C + ^12C]-mannose (for SGLT4) or 2-[^3H + ^1H]-1,5-AG (for SGLT5) and increasing concentrations of various sugars tested. The transport experiments to study the inhibition of empagliflozin, dapagliflozin or remogliflozin, on the transport of 1,5-AG by SGLT5 or its variants were performed in the presence of 10 µM 2-[^3H + ^1H]-1,5-AG and increasing concentrations of the various gliflozins tested.
SGLT5 mutants were created using the quick-change site directed mutagenesis method that enables effective mutagenesis without subcloning of the amplified PCR products. Complementary primer pairs carrying the desired replacements (Supplementary Table 3) were designed using an online tool (https://www.agilent.com/store/primerDesignProgram.jsp). The PCR protocol was carried out following the manufacturer instructions regarding the KOD HOT Start polymerase kit (TOYOBO™, Novagen). The amplified DNA was cleaned-up from the reactions constituents using the GeneJET PCR purification Kit (Thermo Scientific™) and the size of the DNA fragment were verified by DNA agarose-gel electrophoresis. After eliminating the parental DNA by digesting the purified DNA with the DpnI restriction enzyme, the DNA fragments containing the appropriate changes were transformed in E. coli NEB Turbo competent cells (C2984H). Once colonies were obtained, plasmid DNA was finally amplified, purified and sequenced to verify that the required changes had been introduced and eliminate any PCR errors. Next, pUB83-hSGLT5-iso2 as well as the various SGLT5 mutants obtained were used to transduce HEK293T cells using the exact same protocol as described above to create model cell lines overexpressing the different SGLT5 transporters.
Supplementary Fig. 7: Substrate specificity of SGLT5 - impact of replacing specific and conserved substrate binding residues in human SGLT5 by the equivalent ones in […]
When shown, the IC50 values are derived from inhibition curves showing the transport activity of 1,5-AG by the indicated SGLT5 mutants. Values show the concentration needed of the various sugars to inhibit by 50% the transport activity of 10 µM 2-[1H+3H]-1,5-AG. When the inhibition was too weak to derive IC50 values, the inhibition of the transport of 1,5-AG with the indicated concentration of the inhibitor-sugar is shown. Of note, despite having a lower […]
µM). These apparently contradictory changes are not necessarily surprising: in the case of enzymes, there are multiple examples of mutations that, at the same time, increase the apparent affinity (decrease the Km) of an enzyme for its substrate while decreasing the Vmax.
Measurement of transport activities and the description of the structures of the various inhibitory sugars used are as in Fig. 3C. Data corresponds to n = 3 in at least 2 independent […]
(1 picture or pasted object on this page, not shown here)

For the compound `OC[C@H]1OC[C@H](O)[C@@H](O)[C@@H]1O` [1,5-AG, 1,5-anhydroglucitol], the “IC50 for 1,5-AG lower than the IC50 for SGLT5-WT” value (33 µM versus 162 µM) was determined as 5 fold. Besides, the “inhibition of SGLT5-TM” value (competition experiments, Supplementary Fig. 7) was “still being inhibited”.
On to `OC[C@H]1OC(O)[C@@H](O)[C@@H](O)[C@@H]1O` (stereo partly drawn) [Mannose, mannose], for which the “loss of affinity of SGLT5-TM” value (versus wild-type SGLT5, competition experiments, Supplementary Fig. 7) was “tenfold”.
